Read-outs that look alike come from different tables or passages of the source.
Columns and labels:
[1] = tested on: male mice (Slc: ddy); assay: Analgesic effect examined by acetic acid-writhing test; format: in vivo; conditions: subcutaneous injection 30 minutes before 0.6% acetic acid i.p., writhings counted within 10 minutes, 7 mice per group
Method: Example 8 Analgesic Effect Examined by Acetic Acid- Writhing Test:
Male mice (Slc: ddy) aged 5 weeks were divided into groups each having 7 animals. […] After 30 minutes, 0.6% acetic acid was intraperitoneally administered to each mouse in a dose of 0.1 ml/10 g. 10 minutes thereafter, the writhings thus induced were counted within 10 minutes. […] The acetic acid-writhing test was conducted according to a method reported by R. Koster, M. Anderson and E.I. Debeer [refer to Fed. Proc., 18, 412 (1959)].

[2] = tested on: male mice (Slc: ddy); assay: Analgesic examination by radiant heat-stimulation test (tail irradiation, pain threshold); format: in vivo; conditions: for analgesic effect (pain threshold): range 0.03 to 1.0 mg/kg
Method: Example 6 Analgesic Examination by Radiant Heat-Stimulation Test:
Each group had 7 animals. An hour after the injection, the analgesic effect of each compound was examined by radiant heat-stimulation test [refer to A.G. Hayes, M.J. Sheehan, M.B. Tyers; Brit. J. Pharmacol., 91, 111 - 115 (1987)]. Namely, the tail of each mouse was irradiated with intense light and the time required until the animal switched its tail was measured. The value thus measured was referred to as the pain threshold.

[3] = tested on: extirpated guinea pig ileum pieces; assay: Transmural electric stimulation test on an extirpated guinea pig ileum piece (smooth muscle contraction); format: cell-based; conditions: for pD₂: transmural electric stimulation 0.1 Hz, smooth muscle contraction
Method: Example 7 Transmural Electric Stimulation Test on an Extirpated Guinea Pig Ileum Piece:
The effects of the compounds were examined by applying transmural electric stimulation (0.1 Hz) to extirpated guinea pig ileum pieces while using the smooth muscle contraction as an indication [refer to H.K. Kopsterlitz, A.A. Waterfield; Annu. Rev. Pharmacol., 15, 29 - 47 (1975)].
The data shown in Table 1 were calculated according to a method reported by Arunlakshana and Schild [refer to 0. Arunlakashana, H.O. Schild; Brit. J. Pharmacol., 14, 48 - 58 (1959)]. Each value is expressed in mean ± standard deviation.

[4] = subcutaneous, an hour after the injection, p < 0.01 in Dunnett's t-test
[5] = subcutaneous, an hour after the injection
[6] = antagonism by naloxone, method of Arunlakshana and Schild, mean ± standard deviation

Structure (SMILES)	ED₅₀ [1]	dose with statistically significant analgesic effect [2, 4]	analgesic effect (pain threshold) [2, 5]	pA₂ (naloxone) [3, 6]	pD₂ ([3]; mean ± standard deviation)	also measured
CCC(=O)Oc1ccc2c3c1O[C@H]1[C@H](SC(=O)CC)C=C[C@H]4[C@@H](C2)N(CC2CC2)CC[C@@]341 [Compound IX, 3-propionyl-6β-propionylthio-cyclopropylmethylnormorphine]	0.047 mg/kg					
CC(=O)S[C@@H]1C=C[C@H]2[C@H]3Cc4ccc(O)c5c4[C@@]2(CCN3CC2CC2)[C@H]1O5 [Compound VI, 6β-acetylthio-N-cyclopropylmethylnormorphine]		1.0 mg/kg	analgesic effect depending on dose	7.75 ± 0.12	8.38 ± 0.06	
CC(=O)Oc1ccc2c3c1O[C@H]1[C@H](SC(C)=O)C=C[C@H]4[C@@H](C2)N(CC2CC2)CC[C@@]341.Cl [Compound VII, 3-acetyl-6β-acetylthio-N-cyclopropylmethylnormorphine hydrochloride]	0.062 mg/kg	1.0 mg/kg	analgesic effect depending on dose	7.80 ± 0.13	9.01 ± 0.16	
CN1CC[C@]23c4c5ccc(O)c4O[C@H]2[C@@H](O)C=C[C@H]3[C@H]1C5.Cl [Morphine hydrochloride, reference compound]						dose with statistically significant analgesic effect ([2]; mouse, in vivo, sc): ≥ 3.2 mg/kg; pA₂ (naloxone) [3]: 8.45 ± 0.13
CC(C)=CCN1CCC2(C)c3cc(O)ccc3CC1C2C (stereo not shown) [Pentazocine, reference compound]						ED50 ([1]; Mus musculus, sc, read-out: ED₅₀): 0.869 mg/kg

Source: patent EP0374919A1, “Morphine derivative” (Chugai Seiyaku Kabushiki Kaisha, priority 1988, dated 1990)
